Laboratory results from a melting point compilation (Tetko et al.; mined from patent text by program, amines drawn as free bases though some values may be those of a salt).

Compared with `CSc1ccc(-c2c(Cl)nc(Cl)nc2-c2ccc(Cl)cc2)cc1`, `CS(=O)(=O)c1ccc(-c2nc(-c3ccccc3)nn2-c2ccc(Cl)cc2)cc1` is higher in melting point: 144 to 146 °C for the first, 170 °C for the second.

First: Cc1cc(Oc2ccc(C(F)(F)F)cc2Cl)cc(C)c1NC(=O)C1C(=O)N(C)C(=S)N(C)C1=O
Second: COc1cccc2c1CN(c1c(F)cc3c(=O)c(C(=O)O)cn(-c4ccc(F)cc4F)c3c1F)C2
The melting point of the first is lower: 171 to 173 °C for the first, 262 to 271 °C for the second.

`COC(=O)CCC1(NC(=O)c2cc3c4ccccc4n(C(C)=O)c3cn2)C(=O)N(c2ccccc2)c2ccccc21` (stereo not given) and `CN1C(=O)C(Cc2ccccc2)(c2ccccc2O)c2ccccc21` (stereo not given) cannot be ordered by melting point: 189 to 192 °C for the first, 188 to 190 °C for the second.

Compared with `CC(=O)NCCC1=CCc2ccc3nc(C)oc3c21`, `CCOC(=O)c1oc2cc(Br)ccc2c1C` is lower in melting point: 154 to 156 °C for the first, 55 to 56 °C for the second.

Compared with `C=CCn1c2ccc(OC)cc2c2c3c(c(-c4ccccc4Cl)cc21)C(=O)N(Cc1ccc(OC)cc1OC)C3=O`, `COC(=O)CNc1cc2cc(OC)ccc2cc1OCc1ccccc1` is lower in melting point: 171 to 173 °C for the first, 129 to 131 °C for the second.

First: COc1nc(C)nc(NC(=O)NS(=O)(=O)c2cc([N+](=O)[O-])cs2)n1
Second: COC(=O)c1cc(N(CCBr)CCBr)c(S(C)(=O)=O)cc1[N+](=O)[O-]
The melting point of the first is higher: 188 °C for the first, 161 to 162 °C for the second.

Compared with `CCSc1nn2ccccc2c1C(C)=O`, `CCSc1ncc(Oc2ccc(Cl)c(Cl)c2)cc1C#N` is lower in melting point: 84 to 85 °C for the first, 80 to 81 °C for the second.

First: Cc1cc(NC(=O)C(C)(O)COc2ccc(CCF)cc2)ccc1[N+](=O)[O-] (stereo not given)
Second: C=Cc1ccc(COc2ccc(CSCCC(=O)O)cc2)cc1
The melting point of the first is lower: 102 to 105 °C for the first, 135 to 136 °C for the second.

Compared with `CCNC(=O)c1cnn(C)c1[Si](C)(C)C`, `CCOC(=O)c1cc(CC(C)(C)NC(=O)OC(C)(C)C)n(CCOC)n1` is higher in melting point: 77 to 81 °C for the first, 92 to 93 °C for the second.

Compared with `CC(C)N(CCCCOCC(=O)O)c1nc(-c2ccccc2)c(-c2ccccc2)nc1Cl`, `CCOC(=O)CCc1cn(Cc2ccc(C(=O)NCc3nc(-c4ccccc4)oc3C)cc2)nc1-c1ccccc1` is higher in melting point: 136 to 138 °C for the first, 190 to 191 °C for the second.

Compared with `OC(CN1CCNC1=S)c1cccnc1` (stereo not given), `C=CCN1CCC(=O)N(c2c(C)cccc2C)C1=S` is lower in melting point: 200 to 202 °C for the first, 88 to 91 °C for the second.

First: COC(=O)CC1CC(c2ccc(C(=N)NC(=O)OC(C)(C)C)cn2)=NO1 (stereo not given)
Second: CC(C)(C)OC(=O)NC(Cc1ccc(OCc2ccccc2)cc1)C(=O)NCC(=O)OCc1ccccc1 (stereo not given)
The melting point of the first is higher: 143 °C for the first, 101 to 104 °C for the second.

First: CCN(CC)c1ccc(-n2c(CC(=O)O)c(C(=O)O)c3cc(Oc4cccc(Cl)c4)ccc32)cc1
Second: CCCCc1nc2cccc(C(=O)OC)c2n1Cc1ccc(-c2ccccc2-c2n[nH]c(=O)o2)cc1
The melting point of the first is lower: 186 to 191 °C for the first, 204 to 205 °C for the second.

First: COc1ccc2cc(C(=O)O)ccc2n1
Second: COc1ccc(CC(=O)N2CCC[C@H]2C(=O)O)cc1
The melting point of the first is higher: 220 to 222 °C for the first, 138 to 139 °C for the second.

First: O=C1C=Cc2ccccc2C1(Cc1ccncc1)Cc1ccncc1
Second: O=C1CC(c2cccc(-n3ccnc3)c2)=Nc2cc(O)c(-c3ccc(F)cc3)cc2N1
The melting point of the first is lower: 111 to 112 °C for the first, 250 °C for the second.

First: CN(CCOC1CCCCO1)c1cc(NC(=O)OC(C)(C)C)c([N+](=O)[O-])cc1C#Cc1ccc(F)cc1 (racemic)
Second: CC(C)c1ccc(-c2ccc(F)cc2)n1C(C)CC1CC(O)CC(=O)O1 (stereo not given)
The melting point of the first is lower: 134 °C for the first, 167 to 169 °C for the second.

First: COc1cc(Nc2c(C#N)cnc3cc(/C=C/CCO[Si](C)(C)C(C)(C)C)c(OC)cc23)c(Cl)cc1Cl
Second: Cc1cn(C)c2cc(C(C)C)c(Oc3cnc(N)nc3N)cc12
The melting point of the first is lower: 97 to 99 °C for the first, 185 °C for the second.

Compared with `N#CC(N=Cc1ccc([N+](=O)[O-])cc1)=C(Cl)Cl`, `N#Cc1c(N2CCCC2)cccc1[N+](=O)[O-]` is lower in melting point: 171 to 174 °C for the first, 111 to 113 °C for the second.

Compared with `CC(C)(Cc1cc2ccccc2[nH]1)[N+](=O)[O-]`, `N#CC(=C=Nc1nc2ccccc2[nH]1)C#N` is higher in melting point: 102 to 103 °C for the first, 340 to 345 °C for the second.

First: CCn1cc(C(=O)O)c(=O)c2cc(F)c(-c3csc(CN)n3)c(NC)c21
Second: O=C(O)c1oc2cc(O)ccc2c(=O)c1C(=O)O
The melting point of the first is lower: 194 to 195 °C for the first, 255 to 257 °C for the second.

Compared with `C=CC(=O)N(c1cc(-n2ncc(=O)n(C)c2=O)c(F)cc1C#N)S(=O)(=O)CC`, `O=c1c2cc(F)c(N3CCCC3)cc2n(CC2CC2)c(=O)n1O` is higher in melting point: 118 °C for the first, 211 to 213 °C for the second.

Compared with `Cc1c(C)n(CC2CC2C)c2c(OCc3ccc(F)cc3)nncc12` (stereo not given), `CCOC(=O)C1=C(C)Nc2ccnc(OC(C)C)c2C1c1cccc([N+](=O)[O-])c1` (stereo not given) is higher in melting point: 114 to 115 °C for the first, 180 to 182 °C for the second.

First: FC(Sc1nnc(-c2ccc(Cl)cc2)s1)=C(F)C(F)(F)F
Second: NC(=O)C(Sc1nc2cc(Cl)ccc2s1)c1ccccc1 (stereo not given)
The melting point of the first is lower: 69 to 70 °C for the first, 181 to 183 °C for the second.

First: OC[C@@H]1O[C@H]1C#CC#CC#Cc1ccccc1 (relative stereo)
Second: N#Cc1cnc2c(=O)c3ccccc3oc2c1
The melting point of the first is lower: 68 to 70 °C for the first, 220 to 226 °C for the second.

First: CC(=O)C(Cc1ccccc1)(N=Nc1ccc(C(O)(C(F)(F)F)C(F)(F)F)cc1)C(N)=O (stereo not given)
Second: O=C(Nc1ccc(Cl)c(Cl)c1)OCCCC(=O)c1ccccc1
The melting point of the first is lower: 128 to 133 °C for the first, 141 to 143 °C for the second.

First: Cc1ccc(-c2c(C=O)n(C)c(=O)c3ncccc23)cc1
Second: Cc1ccc(-c2c(-c3ccc(S(C)(=O)=O)cc3)[nH]c3ccccc23)cc1
The melting point of the first is higher: 282 to 284 °C for the first, 197 to 198 °C for the second.

Compared with `O=C1Cc2c(ccc3c(CCC4CCN(Cc5ccccc5)CC4)noc23)N1`, `CC(C)Cc1nn(C)c(=O)c2cc(Cc3ccccc3)sc12` is lower in melting point: 188 to 189 °C for the first, 97 to 98 °C for the second.

Compared with `CCOC(=O)COc1ccc(C(=O)Nc2ccccc2Sc2ccc(-c3nnn[nH]3)cc2)cc1`, `COc1ccc(C(=O)Nc2ccccc2)cc1NCc1cc(F)cc(F)c1` is higher in melting point: 148 to 149 °C for the first, 175 to 177 °C for the second.

Compared with `Nc1ncnc2c1c(-c1cc(F)c(O)c(F)c1)nn2Cc1oc2ccc(F)cc2c(=O)c1-c1cccc(F)c1`, `CC(c1oc2ccccc2c(=O)c1-c1cccc(F)c1)n1nc(-c2ccc(N)cc2)c2c(N)ncnc21` (stereo not given) is lower in melting point: 274 to 278 °C for the first, 91 to 94 °C for the second.

First: CC(C)c1[nH]nc2c1C(=O)c1c(NC(=O)CN3CCC(CN)CC3)cccc1-2
Second: COC1CCN(c2c(Cl)cc3c4c(cccc24)C(=O)N(O)C3=O)C1 (stereo not given)
The melting point of the first is higher: 218 to 220 °C for the first, 136 to 142 °C for the second.

First: Cc1ccc(/C=C/C2=CCN(Cc3c[nH]c4ncccc34)CC2)cc1
Second: CN1CC=C(C(=O)N2c3ccccc3C(=O)Nc3cccc(Cl)c32)CC1
The melting point of the first is lower: 209 to 212 °C for the first, 296 °C for the second.

Compared with `CCOC(=O)C(=O)c1csc(NC(=S)NC(=O)c2ccccc2)n1`, `COc1cccc2c(=O)n(C(C)(C)C(=O)OCC(=O)c3ccccc3)c(=O)[nH]c12` is lower in melting point: 155 to 157 °C for the first, 132 to 133 °C for the second.

First: CC(C)N(CCC(c1cccs1)c1ccc(O)cc1O)C(C)C (stereo not given)
Second: Cc1nccc2c1[nH]c1cc(O)ccc12
The melting point of the first is lower: 102 to 109 °C for the first, 248 °C for the second.

First: CCCCCC(=O)C=Cc1ccc(CC(=O)O)s1
Second: CCC(C(=O)O)c1ccc(C(CC)C(=O)O)cc1 (stereo not given)
The melting point of the first is lower: 51 °C for the first, 198 to 202 °C for the second.

First: CC(NC(=O)Nc1ccc(Br)cn1)c1ncccc1F (stereo not given)
Second: COc1cccc(-c2nc3nccnc3[nH]2)c1
The melting point of the first is lower: 151 to 154 °C for the first, 289 °C for the second.

First: COCc1c(C(=O)OC(C)C)ncc2[nH]c3cccc(Oc4ccc(Cl)cn4)c3c12
Second: CCCN(CCC)CCOc1ccc(NC(=O)c2c(OC)cccc2OC)cc1
The melting point of the first is higher: 190 to 191 °C for the first, 116 to 120 °C for the second.

First: COc1cc(C=C(C=O)C(C=O)=Cc2ccc(OC(=O)c3ccccc3)c(OC)c2)ccc1OC(=O)c1ccccc1
Second: O=C1CN(c2ccccc2)C(=O)N1C(=O)c1ccccc1Cl
The melting point of the first is lower: 107 to 110 °C for the first, 184 to 185 °C for the second.

Compared with `COc1cc(N)c(Cl)cc1-c1nc(-c2cccnc2)c(C)[nH]1`, `CS(=O)(=O)Nc1c(C(=O)c2ccccc2)[nH]c2cc(Cl)ccc12` is higher in melting point: 178 to 180 °C for the first, 215 to 218 °C for the second.

Compared with `COc1cc2c(cc1OC(C)=O)CCC1C2CCC2(C)C1C=CC21OCCO1` (stereo not given), `COC(=O)C[C@]1(C)[C@@H](O)CC[C@H]1C1CCc2cc(OC)ccc2C1` (stereo not given in full) is lower in melting point: 161 to 162 °C for the first, 86 to 87 °C for the second.

First: CNC(=O)NC(=O)C(CC1CCC(O)C1)c1ccc(Cl)c(Cl)c1 (stereo not given)
Second: CCCC1=C(C(=O)OCC)C(c2cc(Cl)ccc2Cl)c2c[nH]nc2N1 (stereo not given)
The melting point of the first is lower: 82 to 84 °C for the first, 162 °C for the second.

First: COc1cc(C)c(C(=O)CCCCCCCCCCCCCCCCCO)c(O)c1OC
Second: CCCCCCCCCCC[C@@H]1CC(O)=CC(=O)O1
The melting point of the first is higher: 101 °C for the first, 86 to 87 °C for the second.

First: CCCc1cc(=O)[nH]c2c3c(cc(O)c12)OC(C)C(C)C3=O (stereo not given)
Second: CC1CC(C)(C)C(=O)C(C(=O)c2ccc(OC(F)F)cc2[N+](=O)[O-])C1=O (stereo not given)
The melting point of the first is higher: 295 to 296 °C for the first, 108 to 110 °C for the second.

First: CNC(=C[N+](=O)[O-])NCCSCc1nc(CN(C)C)sc1C
Second: CCOC(=O)C1=C(C)NC(C)=C(C(=O)OCC)C1c1ccc(OCCCN(C)C)c(OC)c1
The melting point of the first is higher: 104 to 106 °C for the first, 62 °C for the second.

Compared with `CC12CCC(=O)C=C1CCC1C2=CCC2(C)C1CCC2(O)C#N` (stereo not given), `N#CCCNC1CCCC1` is lower in melting point: 225 to 228 °C for the first, 81 to 84 °C for the second.

First: Cc1c(C(=O)O)ccc2c1C(Cl)C(Cl)CS2(=O)=O (stereo not given)
Second: Nc1nc(O)c2c(n1)NCC(CCc1cc(C(=O)O)c[nH]1)C2 (stereo not given)
The melting point of the first is lower: 236 to 244 °C for the first, > 260 °C for the second.

First: O=S(=O)(Cl)c1sc(Cl)c(Cl)c1Cl
Second: NS(=O)(=O)c1cc(C=O)cs1
The melting point of the first is lower: 56 °C for the first, 146 to 149 °C for the second.

First: CCCCCCCCc1c(C)[nH]c(C)c(C#N)c1=O
Second: CCCC(O)P(=O)(O)CCCN (stereo not given)
The melting point of the first is higher: 205 to 206 °C for the first, 188 °C for the second.

First: Nc1c([N+](=O)[O-])sc2cccc(Cl)c12
Second: COC(=O)C1=C(C)NC(CO)=C(C(=O)OC)C1c1cccc([N+](=O)[O-])c1 (stereo not given)
The melting point of the first is higher: 174 to 175 °C for the first, 145 to 146 °C for the second.

Compared with `N#Cc1cccc(-n2cc(-c3ccccn3)cn2)n1`, `O=c1ccn(CCO)c(C(O)c2ccccc2F)c1OCc1ccccc1` (stereo not given) is lower in melting point: 260 to 261 °C for the first, 164 to 166 °C for the second.

First: COCCN(C)Cc1c(-c2ccc(N)cc2)sc2c1c(=O)n(-c1ccc3c(c1)OCO3)c(=O)n2Cc1c(F)cccc1F
Second: COC(=O)c1cc(C(C)=O)cs1
The melting point of the first is higher: 200 to 202 °C for the first, 94 to 96 °C for the second.
